Laboratory results published in patent US4975449A, “Topical treatment of glaucoma with 2-benzothiazolesulfonamide derivative” (University of Iowa Research Foundation, priority 1983, dated 1990).
Values joined by “and” are separate entries in the source; they are usually repeats but may differ in a detail not shown here. Equal values may be shown once. “Also recorded” adds a separate entry of the source.

Tests used:
[1] = test system: rabbit eyes (intraocular pressure); assay: Rabbit Eye Tests (In-Vivo IOP Determinations), Water Loading Model; set-up: species or system New Zealand albino rabbits; settings: for drop in IOP (right eye) compared to no drug control: 6-ethoxy-N-methyl: at 90 and 120 minutes, 6-chloro: 15 through 90 minutes, ethoxzolamide: any time point
Description: New Zealand albino rabbits either sex and weighing 1.9-2.4kg were used. Control IOP measurements were made by applanation tonometry (Alcon Applanation Pneumatonograph®) prior to water loading and drug administration. The rabbits were first anesthelized and then water loaded using 100 ml/kg (sterile water for injection). The water dose was given intraperitoneally over 15-20 minutes Four test formulations were administered topically to the right eye of each rabbit immediately following water loading. The vehicle was administered to the left eye of each rabbit. The test formulations contained 1% suspensions of ethoxzolamide, and the other indicated compounds, and a vehicle (coded E). The vehicle contained a pH 7.2 phosphate buffer and 0.05% polysorbate 80 (Tween-80®). IOP measurement were made in right and left eyes at 15, 30, […], 60, 90, 120 and 180 minutes after topical administration.

[2] = test system: rabbit eyes (intraocular pressure); assay: Salted Rabbit Test (IOP in rabbits fed a sodium enriched diet); format: in vivo, adult white rabbits; settings: for IOP change, (IOPDET - IOPCET) - (IOPDEO - IOPCEO) / Difference in IOP between both eyes just prior to dosing (IOPDEO - IOPCEO): individual rabbit; for IOP change, (IOPDET - IOPCET) - (IOPDEO - IOPCEO): 1% w/v suspension topical; for Difference in IOP between both eyes just prior to dosing (IOPDEO - IOPCEO): t = 0, pre-dose; for Effectiveness in lowering IOP, comparison (in words): the two rabbit models of Examples 10 and 11
Description: The treated eye was selected randomly, whereas, the fellow eye received placebo; the observer was masked.
In particular, a 1% w/v suspension of 6-chloro-2-benzothiazolesulfonamide analog was prepared in a standard vehicle consisting of aqueous pH 7.8 phosphate buffer, 0.05% w/v tween 80, and sufficient NaC1 to make the preparation isotonic. One drop, followed by two drops each at one minute intervals, was applied to one eye of normal adult white rabbits. Fifteen rabbits were used in the experiment. The treated eye was selected randomly, whereas, the fellow eye received placebo. The observer was masked. The intraocular pressure (IOP) was measured with an Alcon […] pneumotonometer. A drop of local anesthetic was applied just prior to making the measurement. The IOP was measured in both rabbit eyes at 0, 30, 60, 90 and 120 minutes following instillation of the new antiglaucoma agent.

[3] = test system: rabbit eyes (intraocular pressure); assay: as above; format: in vivo, adult white rabbits; settings: for Lowering of IOP (in words): 6-chloro: 30, 60 and 120 minutes, ethoxzolamide: any time point after dosing; for Average IOP change: 1% w/v suspension topical; for Average difference in IOP between both eyes just prior to dosing: t = 0, pre-dose; for Statistical significance of IOP change: N.S. = non-significant
[4] = 15 min after topical administration, 1% suspension, 50 ul q 2 min × 6, right eye
[5] = 30 min after topical administration, 1% suspension, 50 ul q 2 min × 6, right eye
[6] = 60 min after topical administration, 1% suspension, 50 ul q 2 min × 6, right eye
[7] = 90 min after topical administration, 1% suspension, 50 ul q 2 min × 6, right eye
[8] = 120 min after topical administration, 1% suspension, 50 ul q 2 min × 6, right eye
[9] = 180 min after topical administration, 1% suspension, 50 ul q 2 min × 6, right eye
[10] = time 0 min, baseline, 1% suspension topical to right eye

SMILES	drop in IOP (right eye) compared to no drug control [1]	IOP, right eye (R) [1, 4]	IOP, right eye (R) [1, 5]	IOP, right eye (R) [1, 6]	IOP, right eye (R) [1, 7]	IOP, right eye (R) [1, 8]	IOP, right eye (R) [1, 9]	IOP, right eye (R) [1, 10]	Paired t value of IOP change ([2]; 60 min)	Paired t value of IOP change ([2]; 120 min)	IOP change, (IOPDET - IOPCET) - (IOPDEO - IOPCEO) ([2]; 30 min)	IOP change, (IOPDET - IOPCET) - (IOPDEO - IOPCEO) ([2]; 60 min)	IOP change, (IOPDET - IOPCET) - (IOPDEO - IOPCEO) ([2]; 90 min)	IOP change, (IOPDET - IOPCET) - (IOPDEO - IOPCEO) ([2]; 120 min)	Difference in IOP between both eyes just prior to dosing (IOPDEO - IOPCEO) [2]	Effectiveness in lowering IOP, comparison (in words) [2]	Lowering of IOP (in words) [3]	Paired t value of IOP change ([3]; 30 min)	Paired t value of IOP change ([3]; 90 min)	Average IOP change ([3]; 30 min)	further results
NS(=O)(=O)c1nc2ccc(Cl)cc2s1 [6-Chloro benzothiazole-2-sulfonamide, 6-Chloro-2-benzothiazolesulfonamide]	significant drop	19.72 mmHg	20.00 mmHg	21.39 mmHg	19.11 mmHg	18.78 mmHg	17.8 mmHg	14.33 mmHg	-2.106	-2.11	-3 mm Hg and -5 mm Hg and +1 mm Hg and 0 mm Hg and -4 mm Hg and -1 mm Hg and -2 mm Hg and +2 mm Hg	-2 mm Hg and -4 mm Hg and +1 mm Hg and -3 mm Hg and +2 mm Hg and -1 mm Hg and +3 mm Hg	-1 mm Hg and -2 mm Hg and +1 mm Hg and -3 mm Hg and +2 mm Hg and 0 mm Hg and +3 mm Hg	-2 mm Hg and -4 mm Hg and +3 mm Hg and -1 mm Hg and -5 mm Hg and 0 mm Hg and -6 mm Hg and +1 mm Hg	+1 mm Hg and +2 mm Hg and 0 mm Hg and +3 mm Hg and -2 mm Hg and -1 mm Hg and -3 mm Hg	pharmacologically active (lowered IOP)	small but significant reduction of intraocular pressure; also recorded: statistically significant	-1.834	-1.63	-0.93 mm Hg	Effectiveness (in words) ([1]; water loading model, topical): proved effective; Probability (1.t.) of IOP change ([3]; 30 min): 0.05; Probability (1.t.) of IOP change ([3]; 60 min): 0.025; Probability (1.t.) of IOP change ([3]; 90 min): 0.1; Probability (1.t.) of IOP change ([3]; 120 min): 0.025; Average IOP change ([3]; 60 min): -1.27 mm Hg; Average IOP change ([3]; 90 min): -0.87 mm Hg; Average IOP change ([3]; 120 min): -1.47 mm Hg; Average difference in IOP between both eyes just prior to dosing [3]: +0.27 mm Hg
CCOc1ccc2nc(S(=O)(=O)NC)sc2c1 [6-Ethoxy-N-methyl-2-benzothiazolesulfonamide]	significant drop	19.10 mmHg	19.90 mmHg	20.33 mmHg	18.57 mmHg	17.24 mmHg	17.00 mmHg	14.10 mmHg													
CCOc1ccc2nc(S(N)(=O)=O)sc2c1 [Ethoxzolamide, reference compound]	no effect	21.07 mmHg	21.60 mmHg	21.33 mmHg	20.33 mmHg	18.80 mmHg	16.4 mmHg	14.94 mmHg	0.40	0.50	+1 mm Hg and +2 mm Hg and -2 mm Hg and -3 mm Hg and 0 mm Hg	+3 mm Hg and -2 mm Hg and +2 mm Hg and +1 mm Hg and 0 mm Hg	+1 mm Hg and 0 mm Hg and +2 mm Hg and -2 mm Hg and -3 mm Hg	0 mm Hg and -1 mm Hg and +2 mm Hg	+4 mm Hg and +1 mm Hg and -1 mm Hg and 0 mm Hg	no effectiveness	No lowering of IOP could be detected	1.27	0.73	-.17 mm Hg	Statistical significance of IOP change ([3]; 30 min): N.S.; Statistical significance of IOP change ([3]; 60 min): N.S.; Statistical significance of IOP change ([3]; 90 min): N.S.; Statistical significance of IOP change ([3]; 120 min): N.S.; Average IOP change ([3]; 60 min): +.33 mm Hg; Average IOP change ([3]; 90 min): -0 mm Hg; Average IOP change ([3]; 120 min): +.17 mm Hg; Average difference in IOP between both eyes just prior to dosing [3]: +.67 mm Hg
